Data on two molecules can be found in patent publication US20240166680A1, “NUCLEOSIDE ANALOG AND USE THEREOF” (SHANGHAI INSTITUTE OF MATERIA MEDICA, CHINESE ACADEMY OF …, priority 2021, published 2024).

Series [1] relates to 2019 novel coronavirus (SARS-CoV-2). The series can be described thus: Inhibition of SARS-CoV-2 replication in Vero cells (qRT-PCR). Format: cell-based. The conditions noted are these: Severe acute respiratory syndrome coronavirus 2, 48 hours, virus copy number in supernatant by qRT-PCR. A general note: In qPCR the cycle at which signal appears reflects the starting amount.
The test system of series [2] is porcine epidemic diarrhea virus (PEDV). The series can be described thus: Inhibition of PEDV replication in Vero cells by fluorescent quantitative PCR. To be noted: 36 h, read-out: PEDV (Vero) EC50.
The nature of series [3]: Cytotoxicity in Vero cells (SARS-CoV-2 test). Format: cell-based. To be noted: African green monkey.
The next series has as its system dengue virus (DENV). The series can be described thus: Dengue virus plaque reduction assay in Vero cells. To be noted: read-out: DENV (Vero) Inhibition rate at 5 μM. The series is classed as cell-based. As to the method:
Determination of the inhibitory activity of compounds against dengue virus by plaque reduction assay: Vero cells were inoculated into 6-well cell culture plates at a density of 600,000 cells per well, and cultured overnight in a 5% CO2, 37° C. incubator. The compounds and virus (40-50 PFU/well) were added the next day. The cells were cultured in an incubator at 5% CO2 and 37° C. for 2 hours, then the supernatant was aspirated, and the low-melting point agarose culture medium containing the corresponding concentration of the compound was added. The cells were cultured in an incubator at 5% CO2, 33° C. or 37° C. for 6-7 days, until obvious virus plaques could be observed in the virus-infected control wells without compound under the microscope. Cells were fixed with 4% paraformaldehyde and stained with crystal violet. The number of plaques in each well was calculated. Cytotoxicity experiments were performed in parallel with antiviral experiments. Vero cells were inoculated into 96-well cell culture plates at a density of 20,000 cells per well, and cultured overnight in a 5% CO2, 37° C. incubator. The compounds were added the next day (1-5 concentration points, single point). The cells were cultured in an incubator at 5% CO2, 33° C. or 37° C. for 6-7 days. Cell viability in each well was then detected with CCK-8.
For orientation: Plaque reduction counts the foci of infection that form in a cell layer.

The conditions of series [4]: in monkeys; cited from earlier work.
Series [5] concerns respiratory syncytial virus (RSV). Description: Inhibition of respiratory syncytial virus replication by CPE in HEp-2. Format: cell-based. The conditions noted are these: human respiratory syncytial virus, HEp-2, read-out: RSV (HEp-2) EC50.
The next series in a line: in vitro. The conditions noted are these: human.
A short description of series [6]: Cytotoxicity in MDCK cells (no viral infection). Format: cell-based. To be noted: dog, without viral infection, read-out: H3N2 (MDCK) CC50. On the procedure:
(§1) Determination of the inhibitory activity of compounds on the replication of respiratory syncytial virus (RSV), human coronavirus OC43, influenza A virus, and Zika virus by Cytopathogenic effect (CPE): the experimental cells were inoculated at a certain cell density to 96 well cell culture plates, and cultured overnight in a 5% CO2, 37° C. incubator. The compounds and viruses were added the next day. Depending on the tested virus, the cells were cultured in an incubator for 3-7 days under 5% CO2, 33° C. or 37° C., until 80-95% of the cells in the virus-infected control wells without compound had pathological changes. Cell viability in each well was then detected with CellTiter-Glo or CCK-8. […] The cytotoxicity test method is the same as the corresponding antiviral test method, but without viral infection.
(§2) The antiviral activity and cytotoxicity of the compound are represented by the inhibition rate (%) of the compound on the virus-induced cellular viral effect and the cell viability (%), respectively. Calculation equations are as follows:
(§3) Cell viability (%)=(reading value of test well−average value of medium control)/(average value of cell control−average value of medium control)×100;
(§4) EC50 and CC50 values were calculated by Prism software, and the inhibition curve fitting method was “log (inhibitor) vs. response—Variable slope”.

The test system of the next series is influenza A virus (H3N2). The series can be described thus: Inhibition of influenza virus H3N2 replication by CPE in MDCK. The series is classed as cell-based. The conditions noted are these: MDCK cells.
Another series deals with Zika virus. Description: Inhibition of Zika virus replication by CPE in Huh7. Format: cell-based. To be noted: Huh-7, read-out: Zika (Huh7) Inhibition rate.
Series [7] is described as follows: Cytotoxicity in Huh7 cells (no viral infection). Format: cell-based. To be noted: human, without viral infection, read-out: HCoV OC43 (Huh7) CC50. On the procedure:
as §1, §2, §3, §4

As a reminder, the EC50 is the concentration at which the effect is half-maximal. One may read the inhibition as the percentage by which the read-out fell short of the control. As to `O=c1nc(NO)ccn1[C@@H]1O[C@H](CO)[C@@H](O)[C@H]1O` [NHC, β-d-N4-hydroxycytidine], the EC50 in series [1] is 300 nM; in series [2] it was 1170 nM; in [5], 4600 nM; in the series on influenza A virus (H3N2), 770 nM. Besides, the CC50 (in [3]; in the series “in vitro”; in series [6]) was more than 10000 nM in each case. Also, the figures for the inhibition at 5 µM in the series with dengue virus (DENV) and in the series on Zika virus were 40% and 66%, respectively. Further, in series [4], the oral bioavailability result is listed as “less than 10%”.

For the molecule `[2H]c1cc([C@]2(C#N)O[C@H](CO)[C@@H](O)[C@H]2O)n2ncnc(N)c12` [Compound C22-0], the half-maximal effective concentration (EC50) in series [1] is 460 nM; in series [5], 560 nM. Besides, the CC50 (in series [7]; in [3]; in “in vitro”) was more than 10000 nM in each case. Besides, in the series with dengue virus (DENV), the inhibition at 5 µM was 100%.
